Test results published in the NIST ThermoML archive (doi:10.1021/je030218b).

What was measured:
[1] = Liquid; for mass density / speed of sound: 298.15 K, 101.33 kPa
[2] = refractive index (Na D-line) (dimensionless); conditions: 298.15 K; 101.33 kPa; Liquid; Standard Abbe refractometry
[3] = xn = mol fraction of the nth substance listed; conditions: 298.15 K, 101 kPa, Liquid
[4] = refractive index (Na D-line) (dimensionless); xn = mol fraction of the nth substance listed; conditions: 298.15 K, 101 kPa, Liquid, Standard Abbe refractometry

CC(C)CO [2-methyl-1-propanol]
Conditions | mass density [kg/m3] | refractive index | speed of sound [m/s]
[1] | 797.84 | – | 1185.6
[2] | – | 1.3937 | –

Conditions | vapor or sublimation pressure [kPa]
[1], 381 K | 101.3

CC(C)CO [2-methyl-1-propanol] + CCOC(C)=O
Conditions | refractive index, [4] | speed of sound, [3] [m/s]
x2 = 0.052 | 1.39253 | 1186.1
x2 = 0.104 | 1.39136 | 1184.4
x2 = 0.155 | 1.39012 | 1182.9
x2 = 0.206 | 1.3889 | 1181.5
x2 = 0.258 | 1.38753 | 1179.3
x2 = 0.308 | 1.38611 | 1177.5
x2 = 0.359 | 1.3847 | 1175.6
x2 = 0.41 | 1.3833 | 1174.2
x2 = 0.46 | 1.38169 | 1171.3
x2 = 0.51 | 1.3803 | 1169
x2 = 0.56 | 1.37842 | 1165.2
x2 = 0.609 | 1.37674 | 1163
x2 = 0.659 | 1.37505 | 1160.4
x2 = 0.708 | 1.37301 | 1158.2
x2 = 0.757 | 1.37111 | 1155.3
x2 = 0.806 | 1.36884 | 1152.8
x2 = 0.855 | 1.36675 | 1150.1
x2 = 0.904 | 1.36431 | 1147.4
x2 = 0.952 | 1.36189 | 1144.7

CCO [ethanol]
Conditions | mass density [kg/m3] | refractive index | speed of sound [m/s]
[1] | 785.36 | – | 1143.1
[2] | – | 1.35916 | –

Conditions | vapor or sublimation pressure [kPa]
[1], 351.5 K | 101.3

CCOC(C)=O [ethyl acetate]
Conditions | mass density [kg/m3] | refractive index | speed of sound [m/s]
[1] | 894.24 | – | 1137.7
[2] | – | 1.3698 | –

Conditions | vapor or sublimation pressure [kPa]
[1], 350.25 K | 101.3

CCCCCO [pentan-1-ol]
Conditions | mass density [kg/m3] | refractive index | speed of sound [m/s]
[1] | 810.96 | – | 1273.3
[2] | – | 1.4077 | –

Conditions | vapor or sublimation pressure [kPa]
[1], 410.59 K | 101.3

CCCCCO [pentan-1-ol] + CCOC(C)=O
Conditions | mass density, [3] [kg/m3] | refractive index, [4] | speed of sound, [3] [m/s]
x2 = 0.05 | 814.16 | 1.40579 | 1263.5
x2 = 0.101 | 817.63 | 1.40382 | 1253.8
x2 = 0.15 | 821.07 | 1.40193 | 1245
x2 = 0.2 | 824.6 | 1.40012 | 1236.5
x2 = 0.251 | 828.3 | 1.39803 | 1227.5
x2 = 0.3 | 831.9 | 1.39629 | 1219.9
x2 = 0.35 | 835.73 | 1.39423 | 1211.9
x2 = 0.4 | 839.69 | 1.3925 | 1204.5
x2 = 0.45 | 843.69 | 1.39052 | 1198.2
x2 = 0.5 | 847.81 | 1.38863 | 1190.5
x2 = 0.549 | 851.89 | 1.38676 | 1184.1
x2 = 0.599 | 856.06 | 1.38493 | 1178.8
x2 = 0.65 | 860.53 | 1.38303 | 1172.1
x2 = 0.7 | 865.01 | 1.38107 | 1166.8
x2 = 0.749 | 869.4 | 1.37919 | 1161.7
x2 = 0.8 | 874.19 | 1.37733 | 1157.1
x2 = 0.85 | 879 | 1.37548 | 1152.2
x2 = 0.898 | 883.69 | 1.3736 | 1148
x2 = 0.947 | 888.68 | 1.37188 | 1144.1
